Assay type in all cases: cell-based
One test has as its system P. aeruginosa. Nature of the test: MIC and MBC determinations in vitro, P. aeruginosa. The conditions noted are these: Pseudomonas aeruginosa, P. aeruginosa clinical isolate; for MIC: 24 h culture, read-out: MIC; for MBC: solid medium 24 h, read-out: MBC. On the procedure: (§1) The three strains of MRSA, P. aeruginosa, and E. coli used in this experiment were from clinical isolates, which were provided by the People’s Liberation Army 304 Hospital.
(§2) To evaluate the antibacterial activities of newly synthesized N (7) position modified fluoroquinolones, the minimum inhibitory (MIC) and bactericidal (MBC) concentrations of these compounds toward bacteria were measured.

The test system of the next test is MRSA. The test can be described thus: MIC and MBC determinations in vitro, MRSA. The note with it: MRSA clinical isolate; for MBC: solid medium 24 h; for MIC: 24 h culture, read-out: MIC. On the procedure:
as §1, §2

The next test deals with E. coli. The test can be described thus: MIC and MBC determinations in vitro, E. coli. The conditions noted are these: Escherichia coli, E. coli clinical isolate; for MIC: 24 h culture; for MBC: solid medium 24 h. As for the experimental part: as §1, §2
Where [1] appears, read: Staphylococcus aureus, MRSA, 24 h.
The mark [2] stands for this setting: Staphylococcus aureus, MRSA, 24 h, read-out: MBC.

≈ marks a conversion by molar mass, not a printed value. Where two headings read alike, the source gives them in different places.

`COc1c(N2CCCC(N(C)C)C2)c(F)cc2c(=O)c(C(=O)O)cn(C3CC3)c12` (centres unmarked) [Compound 21-e, 1-Cyclopropyl-7-(3-(dimethylamino)piperidin-1-yl)-6-fluoro-8-methoxy-4-oxo-1,4-dihydroquinoline-3-carboxylic acid]: the figures for the MIC in the test with P. aeruginosa, in the test with MRSA (setting [1]) and against E. coli were 0.313 µg/mL (≈ 0.776 µM), 0.078 µg/mL (≈ 0.193 µM) and 0.625 µg/mL (≈ 1.55 µM), respectively. For the same compound, the MBC (as a rule, the smallest concentration meeting the test's criterion for killing) with P. aeruginosa stood at 0.313 µg/mL (≈ 0.776 µM); in the test with MRSA, 0.313 µg/mL (≈ 0.776 µM); in the test on MRSA (setting [2]), 0.31 µg/mL (≈ 0.768 µM); in the test on E. coli, 0.625 µg/mL (≈ 1.55 µM).

On to `COc1c(N2CCCC(N(C)C(=O)CN)C2)c(F)cc2c(=O)c(C(=O)O)cn(C3CC3)c12` (centres unmarked) [Compound 20-e, 7-(3-(2-Amino-N-methylacetamido)piperidin-1-yl)-1-cyclopropyl-6-fluoro-8-methoxy-4-oxo-1,4-dihydroquinoline-3-carboxylic acid], for which the MIC – broadly, the smallest concentration in the dilution series that meets the test's criterion for growth inhibition – turned out to be 0.78 µg/mL (≈ 1.75 µM) in the test on P. aeruginosa, 25 µg/mL (≈ 56 µM) in the test on MRSA (setting [1]) and 25 µg/mL (≈ 56 µM) with E. coli. Further, the MBC in the test on P. aeruginosa worked out at 6.25 µg/mL (≈ 14 µM); with MRSA (setting [2]), 50 µg/mL (≈ 112 µM); against E. coli it was 50 µg/mL (≈ 112 µM).

Regarding `CCCCC(=O)N(C)C1CCCN(c2c(F)cc3c(=O)c(C(=O)O)cn(C4CC4)c3c2OC)C1` (centres unmarked) [Compound 5-e, 1-Cyclopropyl-6-fluoro-8-methoxy-7-(3-(N-methylpentanamido)piperidin-1-yl)-4-oxo-1,4-dihydroquinoline-3-carboxylic acid], the values for the MIC in the test with P. aeruginosa, with MRSA (setting [1]) and in the test with E. coli were 0.078 µg/mL (≈ 0.165 µM), 0.078 µg/mL (≈ 0.165 µM) and 10 µg/mL (≈ 21.1 µM), respectively. The MBC in the test on P. aeruginosa turned out to be 0.156 µg/mL (≈ 0.329 µM); in the test on MRSA (setting [2]) it was 0.156 µg/mL (≈ 0.329 µM); against E. coli, 20 µg/mL (≈ 42.2 µM).

Take `CCCCCCC(=O)N(C)C1CCCN(c2c(F)cc3c(=O)c(C(=O)O)cn(C4CC4)c3c2OC)C1` (centres unmarked) [Compound 7-e, 1-Cyclopropyl-6-fluoro-8-methoxy-7-(3-(N-methylheptanamido)piperidin-1-yl)-4-oxo-1,4-dihydroquinoline-3-carboxylic acid]: the minimum inhibitory concentration (MIC) was 0.625 µg/mL (≈ 1.25 µM) in the test on P. aeruginosa, 0.313 µg/mL (≈ 0.624 µM) in the test with MRSA (setting [1]) and greater than 40 µg/mL with E. coli. The minimal bactericidal concentration (MBC) was 1.25 µg/mL (≈ 2.49 µM) in the test with P. aeruginosa, 0.625 µg/mL (≈ 1.25 µM) in the test with MRSA (setting [2]) and greater than 40 µg/mL with E. coli.

Regarding `COc1c(N2CCCC(N(C)C(=O)Cn3cncn3)C2)c(F)cc2c(=O)c(C(=O)O)cn(C3CC3)c12` (centres unmarked) [Compound e-1, 1-Cyclopropyl-6-fluoro-8-methoxy-7-(3-(N-methyl-2-(1H-1,2,4-triazol-1-yl)acetamido)piperidin-1-yl)-4-oxo-1,4-dihydroquinoline-3-carboxylic acid], the MIC in the test on P. aeruginosa, in the test with MRSA (setting [1]) and with E. coli was 0.156 µg/mL (≈ 0.313 µM) each time. The MBC with P. aeruginosa was determined as 0.313 µg/mL (≈ 0.628 µM); with MRSA it was 0.313 µg/mL (≈ 0.628 µM); in the test on MRSA (setting [2]), 0.312 µg/mL (≈ 0.626 µM); against E. coli it was 0.313 µg/mL (≈ 0.628 µM).

For `COc1c(N2CCCC(N(C)C(=O)c3ccccc3)C2)c(F)cc2c(=O)c(C(=O)O)cn(C3CC3)c12` (centres unmarked) [Compound 12-e, 1-Cyclopropyl-6-fluoro-8-methoxy-7-(3-(N-methylbenzamido)piperidin-1-yl)-4-oxo-1,4-dihydroquinoline-3-carboxylic acid], the figures for the MIC in the test with P. aeruginosa, in the test with MRSA (setting [1]) and in the test with E. coli were 0.156 µg/mL (≈ 0.316 µM), 0.078 µg/mL (≈ 0.158 µM) and 20 µg/mL (≈ 40.5 µM), respectively. Further, the MBC worked out at 0.313 µg/mL (≈ 0.634 µM) in the test on P. aeruginosa, 0.313 µg/mL (≈ 0.634 µM) in the test with MRSA (setting [2]) and 20 µg/mL (≈ 40.5 µM) in the test on E. coli.

As for `CCCC(=O)N(C)C1CCCN(c2c(F)cc3c(=O)c(C(=O)O)cn(C4CC4)c3c2OC)C1` (centres unmarked) [Compound 4-e, 1-Cyclopropyl-6-fluoro-8-methoxy-7-(3-(N-methylbutyramido)piperidin-1-yl)-4-oxo-1,4-dihydroquinoline-3-carboxylic acid], the figures for the MIC in the test with P. aeruginosa, in the test with MRSA (setting [1]) and with E. coli were 0.078 µg/mL (≈ 0.17 µM), 0.039 µg/mL (≈ 0.0849 µM) and 5 µg/mL (≈ 10.9 µM), respectively. Further, the MBC came out at 0.078 µg/mL (≈ 0.17 µM) with P. aeruginosa, 0.078 µg/mL (≈ 0.17 µM) with MRSA (setting [2]) and 20 µg/mL (≈ 43.5 µM) against E. coli.

For the compound `CCC(=O)N(C)C1CCCN(c2c(F)cc3c(=O)c(C(=O)O)cn(C4CC4)c3c2OC)C1` (centres unmarked) [Compound 3-e, 1-Cyclopropyl-6-fluoro-8-methoxy-7-(3-(N-methylpropionamido)piperidin-1-yl)-4-oxo-1,4-dihydroquinoline-3-carboxylic acid], the MIC in the test on P. aeruginosa turned out to be 0.078 µg/mL (≈ 0.175 µM); in the test with MRSA (setting [1]), 0.039 µg/mL (≈ 0.0875 µM); with E. coli it was 5 µg/mL (≈ 11.2 µM). For the same compound, the MBC was 0.078 µg/mL (≈ 0.175 µM) in the test with P. aeruginosa, 0.078 µg/mL (≈ 0.175 µM) in the test with MRSA (setting [2]) and 10 µg/mL (≈ 22.4 µM) in the test on E. coli.

On to `COc1c(N2CCCC(N(C)C(=O)C(C)N)C2)c(F)cc2c(=O)c(C(=O)O)cn(C3CC3)c12` (centres unmarked) [Compound 19-e, 7-(3-(2-Amino-N-methylpropanamido)piperidin-1-yl)-1-cyclopropyl-6-fluoro-8-methoxy-4-oxo-1,4-dihydroquinoline-3-carboxylic acid], for which the MIC in the test on P. aeruginosa was 0.39 µg/mL (≈ 0.847 µM); in the test with MRSA (setting [1]), 1.56 µg/mL (≈ 3.39 µM); against E. coli, 12.5 µg/mL (≈ 27.1 µM). Also, the MBC was determined as 1.56 µg/mL (≈ 3.39 µM) with P. aeruginosa, 3.12 µg/mL (≈ 6.79 µM) in the test on MRSA (setting [2]) and 25 µg/mL (≈ 54.3 µM) in the test with E. coli.

In the case of `COc1c(N2CCCC(N(C)C(=O)c3cccnc3)C2)c(F)cc2c(=O)c(C(=O)O)cn(C3CC3)c12` (centres unmarked) [Compound 15-e, 1-Cyclopropyl-6-fluoro-8-methoxy-7-(3-(N-methylnicotinamido)piperidin-1-yl)-4-oxo-1,4-dihydroquinoline-3-carboxylic acid], the values for the minimal inhibitory concentration (MIC) in the test with P. aeruginosa, with MRSA (setting [1]) and in the test with E. coli were 0.078 µg/mL (≈ 0.158 µM), 0.078 µg/mL (≈ 0.158 µM) and 10 µg/mL (≈ 20.2 µM), respectively. The values for the MBC in the test with P. aeruginosa, in the test with MRSA (setting [2]) and against E. coli were 0.156 µg/mL (≈ 0.315 µM), 0.156 µg/mL (≈ 0.315 µM) and 20 µg/mL (≈ 40.4 µM), respectively.

For `COc1c(N2C[C@@H]3CCCN[C@@H]3C2)c(F)cc2c(=O)c(C(=O)O)cn(C3CC3)c12` [Compound 1f, moxifloxacin, reference compound], the MIC in the test on P. aeruginosa, in the test with MRSA (setting [1]) and against E. coli was 0.039 µg/mL (≈ 0.0972 µM) throughout. The MBC in the test on P. aeruginosa, with MRSA (setting [2]) and against E. coli was 0.039 µg/mL (≈ 0.0972 µM) throughout.

Regarding `COc1c(N2CC3CCCN(C(=O)Cn4cncn4)C3C2)c(F)cc2c(=O)c(C(=O)O)cn(C3CC3)c12` (centres unmarked) [Compound f-1, 7-(1-(2-(1H-1,2,4-Triazol-1-yl)acetyl)octahydro-6H-pyrrolo[3,4-b]pyridin-6-yl)-1-cyclopropyl-6-fluoro-8-methoxy-4-oxo-1,4-dihydroquinoline-3-carboxylic acid], the results for the MIC with P. aeruginosa, with MRSA (setting [1]) and with E. coli were 1.25 µg/mL (≈ 2.45 µM), 0.313 µg/mL (≈ 0.613 µM) and 0.625 µg/mL (≈ 1.22 µM), respectively. Besides, the MBC with P. aeruginosa, with MRSA (setting [2]) and against E. coli was 2.5 µg/mL (≈ 4.9 µM) each time.

With `CCCCCC(=O)N(C)C1CCCN(c2c(F)cc3c(=O)c(C(=O)O)cn(C4CC4)c3c2OC)C1` (centres unmarked) [Compound 6-e, 1-Cyclopropyl-6-fluoro-8-methoxy-7-(3-(N-methylhexanamido)piperidin-1-yl)-4-oxo-1,4-dihydroquinoline-3-carboxylic acid], the MIC was found to be 0.313 µg/mL (≈ 0.642 µM) in the test on P. aeruginosa, 0.156 µg/mL (≈ 0.32 µM) in the test on MRSA (setting [1]) and 20 µg/mL (≈ 41 µM) in the test on E. coli. Moreover, the MBC in the test on P. aeruginosa was 0.625 µg/mL (≈ 1.28 µM); with MRSA (setting [2]), 0.625 µg/mL (≈ 1.28 µM); with E. coli it was 20 µg/mL (≈ 41 µM).

With `COc1c(N2CC3CCCN(C(C)=O)C3C2)c(F)cc2c(=O)c(C(=O)O)cn(C3CC3)c12` (centres unmarked) [Compound 2-f, 7-(1-Acetyloctahydro-6H-pyrrolo[3,4-b]pyridin-6-yl)-1-cyclopropyl-6-fluoro-8-methoxy-4-oxo-1,4-dihydroquinoline-3-carboxylic acid], the minimal inhibitory concentration (MIC) in the test with P. aeruginosa, in the test on MRSA (setting [1]) and against E. coli was 0.313 µg/mL (≈ 0.706 µM) in each case. Moreover, the MBC in the test with P. aeruginosa, in the test with MRSA (setting [2]) and in the test on E. coli was 0.625 µg/mL (≈ 1.41 µM) each time.

Source of the values: paper PMC9437215, “Synthesis and antibacterial activity evaluation of N (7) position-modified balofloxacins” (Frontiers in Chemistry, 2022).
